Measurements reported in US8840915B2, “Pharmaceutical compositions for sustained release delivery of peptides” (Foresec Pharmaceuticals, LLC, priority 2006, dated 2014).
Blank lines part the entries; values can stand above or below the compound they belong to.

Tests used:
[1] = In vitro release of octreotide and Pal-PEG-BA-OCT from formulation in DLPLG85/15 solution in NMP; degradation/acylation by HPLC; format: physicochemical
Method: (§1) Poly(DL-lactide-co-glycolide) (PLGA) of an 85/15 ratio of lactide to glycolide having a polydispersity of 1.5 (DLPLG85/15, IV: 0.28) was dissolved in N-methyl-2-pyrrolidone (NMP) to obtain a 50% solution by weight.
(§2) An aliquot from each formulation was taken for in vitro release in phosphate buffer at pH 7.4 containing 0.1% sodium azide at 37° C. and the remaining formulation was used to monitor the stability of the peptides and the polymer at room temperature over time. The time points are 0.125, 1, 2, 5, 7, 14, 21, and 28 days. Purity of the peptides in the sample was determined by HPLC. Molecular weight of the polymer was determined by gel permeation chromatography (GPC) using polystyrene standards with known molecular weights.
And more than 50% of the octreotide detected in the releasing medium was degraded or acylated after 28 days. After 28 days, the polymer matrix was dissolved in acetonitrile, and the polymer was precipitated using water. The octreotide was analyzed by HPLC. […] It would be highly advantageous to prevent such interaction between the peptide and the polymer.

[2] = Stability of the polymer in liquid polymeric formulations (molecular weight by GPC, room temperature); format: physicochemical; settings: formulation containing the peptide; for Stability of the polymer in liquid polymeric formulations: polymer molecular weight by GPC, room temperature
Method: as §1, §2
(§3) According to prior art, the presence of a nucleophilic group on a peptide can lead to an interaction between the peptide and the biodegradable polymer of a composition. The nucleophilic groups on the peptide can react with the biodegradable polymer to form acylated products and can catalyze the degradation of the biodegradable polymer. It is well known that when octreotide and poly(DL-lactide-co-glycolide) are combined, especially in an organic solution such as NMP, the octreotide will be acylated and the polymer will be degraded rapidly. The N-terminal conjugation of the octreotide in the present invention contains one primary amine, one secondary amine and one C-terminal carboxylic acid group and is expected to interact and/or react with the polymer similarly to the octreotide itself. […] However, the covalently conjugated octreotide was stable even after 56 days under the same condition. […] After 21 days, the molecular weight of the polymer was reduced by 50%. However, for the polymer in the formulation containing covalently conjugated octreotide, more than 90% of the original molecular weight was retained.

[3] = Stability of the peptides in liquid polymeric formulations (purity by HPLC, room temperature); format: physicochemical; settings: for Stability of the peptides in liquid polymeric formulations: 6% drug load in 50% DLPLG85/15 in NMP, room temperature, purity by HPLC
Method: as §1, §2, §3

[4] = within 24 hours; 50/50 poly(DL-lactide-co-glycolide) having a carboxy terminal group, solution in NMP; cited from earlier work
[5] = In vitro release of ghrelin and deacylated ghrelin from formulations in RG503H solution in mPEG350; format: physicochemical; settings: about 6% in 40% PLGA RG503H in mPEG350; PBS pH 7.4, 37° C.; two week period; HPLC
Method: 40% PLGA RG503H was prepared by appropriately dissolving the polymer in mPEG350. Then ghrelin (Human, Rat 1-5) and deacylated ghrelin (Des-n-Octanoyl-[Ser]^3-ghrelin (Human, Rat 1-5)) were mixed with the polymer solution at about 6% respectively. The formulations were thoroughly mixed to obtain uniform formulations.
The formulation suspensions (about 100 mg) were injected into in 3 mL phosphate buffer saline solution at pH 7.4 with 0.1% sodium azide at 37° C. The receiving fluid was replaced at selected time points with fresh buffer solution, and the removed buffer solution was diluted appropriately with PB at pH 7.4 and was analyzed for drug concentration by HPLC using corresponding standard curves.

[6] = in vivo; cited from earlier work
[7] = In vitro release of lysozyme and palmitoylated lysozyme from injectable polymer solution (RG503H in mPEG350); format: physicochemical; settings: about 7% in 40% PLGA RG503H in mPEG350; PBS pH 7.4, 37° C.; UV 280 nm
Method: 40% PLGA RG503H was prepared by appropriately dissolving the polymer in mPEG350. Then Palmitoyl-Lysozyme and lysozyme were mixed with the polymer solution at about 7% respectively. The formulations were thoroughly mixed to obtain uniform formulations.
In vitro release of lysozyme and palmitoylated lysozyme from injectable polymer solution. The formulation suspensions (about 100 mg) were injected into in 3 mL phosphate buffer saline solution at pH 7.4 with 0.1% sodium azide at 37° C. The receiving fluid was replaced at selected time points with fresh buffer solution, and the removed buffer solution was diluted appropriately with PB at pH 7.4 and analyzed for drug concentration by UV spectrophotometer at 280 nm against standard curves.

Compound: C[C@@H](O)[C@@H]1NC(=O)[C@H](CCCCN)NC(=O)[C@@H](Cc2c[nH]c3ccccc23)NC(=O)[C@H](Cc2ccccc2)NC(=O)[C@@H](NC(=O)[C@H](N)Cc2ccccc2)CSSC[C@@H](C(=O)N[C@H](CO)[C@@H](C)O)NC1=O [Octreotide, octreotide]
peptide remaining in the polymer matrix acylated ([1]; after 28 days of in vitro release, matrix dissolved in acetonitrile, HPLC): more than 50% | peptide detected in the releasing medium degraded or acylated ([1]; after 28 days, phosphate buffer pH 7.4, 0.1% sodium azide, 37° C.): more than 50% | peptide detected in the releasing medium degraded or reacted with the polymer ([1]; within 3 hours, phosphate buffer pH 7.4, 0.1% sodium azide, 37° C.): about 30% | Stability of the polymer in liquid polymeric formulations ([2]; Day 0): 100 | Stability of the polymer in liquid polymeric formulations ([2]; Day 0.1): 95.8 | Stability of the polymer in liquid polymeric formulations ([2]; Day 1): 75.3 | Stability of the polymer in liquid polymeric formulations ([2]; Day 2): 66.1 | Stability of the polymer in liquid polymeric formulations ([2]; Day 3): 65.3 | Stability of the polymer in liquid polymeric formulations ([2]; Day 7): 59.0 | Stability of the polymer in liquid polymeric formulations ([2]; Day 14): 57.1 | Stability of the polymer in liquid polymeric formulations ([2]; Day 21): 51.3 | molecular weight of the polymer reduced by ([2]; after 21 days at room temperature): 50% | Stability of the peptides in liquid polymeric formulations ([3]; Day 7): 2.3 | Stability of the peptides in liquid polymeric formulations ([3]; Day 14): 0.6 | Stability of the peptides in liquid polymeric formulations ([3]; Day 21): 0.3 | Stability of the peptides in liquid polymeric formulations ([3]; Day 56): 0.0 | reaction of the peptide with the polymer ([3]; after 7 days at room temperature, poly(DL-lactide-co-glycolide) solution in NMP): almost completely reacted | peptide acylated ([3]; within 24 hours at room temperature, poly(DL-lactide-co-glycolide) solution in NMP): more than 80%

Compound: C[C@@H](O)[C@@H]1NC(=O)[C@H](CCCCN)NC(=O)[C@@H](Cc2c[nH]c3ccccc23)NC(=O)[C@H](Cc2ccccc2)NC(=O)[C@@H](NC(=O)[C@H](N)Cc2ccccc2)CSSC[C@@H](C(=O)N[C@H](CO)[C@@H](C)O)NC1=O [octreotide acetate]
octreotide acylated and/or degraded [4]: more than 80%

Compound: Des-n-Octanoyl-[Ser]^3-ghrelin (Human, Rat 1-5) [deacylated ghrelin]
in vitro release rate [5]: much faster release

Compound: Detemir
circulation half-life [6]: 10.2 ± 1.2 h

in vitro release rate [5]: much slower release rate
Compound: ghrelin (Human, Rat 1-5)

Compound: native lysozyme: Lysozyme (Mw 14,500), unmodified
initial in vitro release [7]: significant release initially
